# Laboratory results as given in patent US20100184047A1, “SCREENING AND THERAPEUTIC METHOD FOR NSCLC TARGETING THE CDCA8-AURKB COMPLEX” (ONCOTHERAPY SCIENCE, INC., priority 2007, published 2010).
# “Also recorded” adds a separate entry of the source.
# Columns and labels:
# Format in all cases: cell-based, human
# [1] = system: CDCA8; assay: Western blot of endogenous CDCA8 protein after AURKB knock-down; conditions: LC319 cells
# Method: (§1) Cells were lysed in lysis buffer; 50 mM Tris-HCl (pH 8.0), 150 mM NaCl, 0.5% NP-40, 0.5% deoxycholate-Na, 0.1% SDS, plus protease inhibitor (Protease Inhibitor Cocktail Set III; Calbiochem Darmstadt, Germany). An ECL western-blot analysis system was used (GE Healthcare Bio-sciences, Piscataway, N.J.), as previously described (Kato T, et al., Cancer Res. 2005 Jul. 1; 65(13):5638-46; Furukawa C, et al., Cancer Res. 2005 Aug. 15; 65(16):7102-10).
# (§2) A vector-based RNA interference (RNAi) system, psiH1BX3.0, which was designed to synthesize siRNAs in mammalian cells was previously established (Suzuki C, et al., Cancer Res. 2003 Nov. 1; 63(21):7038-41; Kato T, et al., Cancer Res. 2005 Jul. 1; 65(13):5638-46; Furukawa C, et al., Cancer Res. 2005 Aug. 15; 65(16):7102-10; Suzuki C, et al., Cancer Res. 2005 Dec. 15; 65(24):11314-25. Ishikawa N, et al., Cancer Sci. 2006 August; 97(8):737-45; Takahashi K, et al., Cancer Res. 2006 Oct. 1; 66(19):9408-19; Hayama S, et al., Cancer Res. 2006 Nov. 1; 66(21):10339-48). 10 micrograms of siRNA-expression vector was transfected using 30 microliters of Lipofectamine 2000 (Invitrogen) into lung-cancer cell lines, LC319 and SBC-5. The transfected cells were cultured for seven days in the presence of appropriate concentrations of geneticin (G418), and the number of colonies was counted by Giemsa staining, and viability of cells was evaluated by MTT assay (cell-counting kit-8 solution; DOJINDO, Kumamoto, Japan), at 7 days after the G418 treatment. To confirm suppression of CDCA8 protein expression, western blotting was carried out with affinity-purified polyclonal antibody to CDCA8 according to the standard protocol. The target sequences of the synthetic oligonucleotides for RNAi were as follows:
# Furthermore, to inhibit the AURKB activity in mammalian cells, siRNA oligos were constructed against AURKB (si-AURKB-#1 and -#2), as well as control siRNA oligos for EGFP. The target sequences of the synthetic oligonucleotides for RNAi were as follows:
# (§3) Cells seeded onto 10 cm-dishes were incubated in mixtures of both Lipofectamine (Invitrogen) and control 3 (5′-GAAGCAGCACGACUUCUUC-3′ (SEQ ID NO: 61)) or si-AURKBs (#1: 5′-CCAAACUGCUCAGGCAUAA-3′ (SEQ ID NO: 62);
# (§4) #2: 5′-ACGCGGCACUUCACAAUUG-3′ (SEQ ID NO: 63)) in a final concentration of 100 nM. At 4 hours after transfection, the siRNA-lipofectamine mixtures were replaced with fresh media. The cells were collected and analyzed after additional 72-hour culture.
# [2] = system: AURKB; assay: AURKB knock-down by siRNA against AURKB, western blot; conditions: LC319 cells
# Method: as §1, §2
# Furthermore, to inhibit the AURKB activity in mammalian cells, siRNA oligos were constructed against AURKB (si-AURKB-#1 and -#2), as well as control siRNA oligos for EGFP. […]
# #2: 5′-ACGCGGCACUUCACAAUUG-3′ (SEQ ID NO: 63)) in a final concentration of 100 nM. […] The cells were collected and analyzed after additional 72-hour culture.
# [3] = system: CDCA8 transcripts; assay: Semi-quantitative RT-PCR of CDCA8 transcript after AURKB knock-down; conditions: LC319 cells
# Method: Total RNA was extracted from cultured cells and clinical tissues using Trizol reagent (Life Technologies, Inc., Gaithersburg, Md.) according to the manufacturer's protocol. Extracted RNAs and normal human tissue poly(A) RNAs were treated with DNase I (Nippon Gene, Tokyo, Japan) and reversely-transcribed using oligo (dT) primer and SuperScript II reverse transcriptase (Invitrogen, Carlsbad, Calif.). Semi-quantitative RT-PCR experiments were carried out with the following synthesized CDCA8-specific primers, AURKB-specific primers, E2F-1-specific primers, or with beta-actin (ACTB)-specific primers as an internal control:
# as §3, §4
# [4] = system: CDCA8; assay: RNA interference with si-CDCA8 vectors, western blot of CDCA8 protein; conditions: in comparison with two control siRNAs (EGFP, Luciferase)
# Method: as §1
# as §2, with “follows: […]” for “follows:”
# [5] = system: LC319 cells; assay: Colony formation assay after siRNA-expression vector transfection; conditions: Giemsa staining, vs control siRNAs
# Description: as §2, with “follows: […]” for “follows:”
# [6] = system: SBC-5 cells; assay: as above; conditions: Giemsa staining, vs control siRNAs
# Description: as §2, with “follows: […]” for “follows:”
# [7] = system: LC319 cells; assay: MTT assay after siRNA-expression vector transfection; conditions: 7 days after G418 treatment, vs control siRNAs
# Description: as §2, with “follows: […]” for “follows:”
# [8] = system: SBC-5 cells; assay: as above; conditions: 7 days after G418 treatment, vs control siRNAs
# Description: as §2, with “follows: […]” for “follows:”
Substance,amount of CDCA8 protein [1],AURKB expression / AURKB protein [2],level of CDCA8 transcripts [3],expression of endogenous CDCA8 proteins ([4]; LC319 cells),expression of endogenous CDCA8 proteins ([4]; SBC-5 cells),colony numbers (colony-formation assay) [5],colony numbers (colony-formation assay) [6],cell viability (MTT assay) [7],cell viability (MTT assay) [8],phosphorylation levels of CDCA8 [1]
"5′-ACGCGGCACUUCACAAUUG-3′ (listed as RNA, chemistry not given here) [si-AURKB-#2]",dramatically decreased,Reduction,not influenced,–,–,–,–,–,–,–
5′-CAGCAGAAGCTATTCAGAC-3′ (CAGCAGAAGCTATTCAGACTTCAAGAGAGTCTGAATAGCTTCTGCTG; expressed or natural sequence) [si-CDCA8-#1],–,–,–,significantly suppressed,significantly suppressed,significant decreases,significant decreases,significant decreases,significant decreases,–
"5′-CCAAACUGCUCAGGCAUAA-3′ (listed as RNA, chemistry not given here) [si-AURKB-#1]",dramatically decreased,Reduction,not influenced,–,–,–,–,–,–,–
5′-GCCGTGCTAACACTGTTAC-3′ (GCCGTGCTAACACTGTTACTTCAAGAGAGTAACAGTGTTAGCACGGC; expressed or natural sequence) [si-CDCA8-#2],–,–,–,significantly suppressed,significantly suppressed,significant decreases,significant decreases,significant decreases,significant decreases,–
5′-GGTGATTCACAGAGACATA-3′ (GGTGATTCACAGAGACATATTCAAGAGATATGTCTCTGTGAATCACC; expressed or natural sequence) [si-AURKB],decreased,selectively knocked down; also recorded: Reduction,not influenced,–,–,–,–,–,–,decreased
